How the values were obtained:
Experiment in all cases: post-emergent herbicidal activity, greenhouse
Format in all cases: in vivo
Downy Brome = tested on: Downy Brome
Method in brief: (§1)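 Post-emergence foliar spray at tabulated application rates, using aliquots of a 1.0% stock in acetone, THF or water plus ~0.4% emulsifier, applied to 2–3-week-old greenhouse plants. Plant injury was rated relative to controls roughly two and four weeks after treatment.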

Wheat = settings: Table II
Method in brief: as §1

Rice = settings: Table II
Method in brief: as §1

Soybean = settings: Table II
Method in brief: as §1

Smartweed = tested on: Smartweed
Method in brief: as §1

Morningglory = tested on: Morningglory
Method in brief: as §1

Hemp Sesbania = settings: Table II
Method in brief: as §1

Cocklebur = tested on: Cocklebur
Method in brief: as §1

Canada Thistle = settings: Table I, 4 WAT
Method in brief: as §1

Crabgrass = settings: Table II
Method in brief: as §1

Panicum Spp = settings: Table II
Method in brief: as §1

Sorghum = settings: Table II
Method in brief: as §1

Johnsongrass = settings: Table I, 4 WAT
Method in brief: as §1

Wild Buckwheat = settings: Table II
Method in brief: as §1

Barnyardgrass = tested on: Barnyardgrass
Method in brief: as §1

Sugar Beet = settings: Table II
Method in brief: as §1

Yellow Nutsedge = settings: Table I, 4 WAT
Method in brief: as §1

Lambsquarters = tested on: Lambsquarters
Method in brief: as §1

Quackgrass = settings: Table I, 4 WAT
Method in brief: as §1

Velvetleaf = tested on: Velvetleaf
Method in brief: as §1

Measured: post-emergent herbicidal activity index

CC(C#N)OP(=O)(CNCC#N)OC(C)C#N (stereo not drawn) [Example 12, phosphonic acid, [[(cyanomethyl)amino]-methyl],bis 1-cyanoethyl ester]
0 (0-24% control): Downy Brome; Table II, 2 WAT, 0.28 kg/h | Downy Brome; Table II, 4 WAT, 1.12 kg/h | Wheat; 2 WAT, 0.28 kg/h | Wheat; 4 WAT, 1.12 kg/h | Rice; 2 WAT, 0.28 kg/h | Rice; 4 WAT, 1.12 kg/h | Soybean; 2 WAT, 0.28 kg/h | Smartweed; Table II, 2 WAT, 0.28 kg/h | Smartweed; Table II, 4 WAT, 1.12 kg/h | Morningglory; Table II, 2 WAT, 0.28 kg/h | Hemp Sesbania; 2 WAT, 0.28 kg/h | Hemp Sesbania; 4 WAT, 1.12 kg/h | Hemp Sesbania; 4 WAT, 5.6 kg/h | Cocklebur; Table II, 2 WAT, 0.28 kg/h | Crabgrass; 2 WAT, 0.28 kg/h | Panicum Spp; 2 WAT, 0.28 kg/h | Panicum Spp; 4 WAT, 1.12 kg/h | Wild Buckwheat; 2 WAT, 0.28 kg/h | Wild Buckwheat; 4 WAT, 5.6 kg/h | Barnyardgrass; Table II, 2 WAT, 0.28 kg/h | Sugar Beet; 2 WAT, 0.28 kg/h | Sugar Beet; 4 WAT, 1.12 kg/h | Velvetleaf; Table II, 2 WAT, 0.28 kg/h
4 (100% control): Smartweed; Table I, 4 WAT, 5.6 kg/h | Smartweed; Table I, 4 WAT, 11.2 kg/h | Sorghum; 4 WAT, 5.6 kg/h | Johnsongrass; 5.6 kg/h | Lambsquarters; Table II, 4 WAT, 5.6 kg/h
2 (50-74% control): Downy Brome; Table I, 4 WAT, 5.6 kg/h | Wheat; 4 WAT, 5.6 kg/h | Rice; 4 WAT, 5.6 kg/h | Smartweed; Table II, 4 WAT, 5.6 kg/h | Morningglory; Table I, 4 WAT, 5.6 kg/h | Morningglory; Table I, 4 WAT, 11.2 kg/h | Cocklebur; Table I, 4 WAT, 5.6 kg/h | Cocklebur; Table I, 4 WAT, 11.2 kg/h | Canada Thistle; 5.6 kg/h | Canada Thistle; 11.2 kg/h | Crabgrass; 4 WAT, 1.12 kg/h | Crabgrass; 4 WAT, 5.6 kg/h | Barnyardgrass; Table I, 4 WAT, 5.6 kg/h | Lambsquarters; Table I, 4 WAT, 11.2 kg/h | Lambsquarters; Table II, 4 WAT, 1.12 kg/h | Quackgrass; 11.2 kg/h | Velvetleaf; Table I, 4 WAT, 5.6 kg/h | Velvetleaf; Table I, 4 WAT, 11.2 kg/h | Velvetleaf; Table II, 4 WAT, 5.6 kg/h
3 (75-99% control): Downy Brome; Table II, 4 WAT, 5.6 kg/h | Cocklebur; Table II, 4 WAT, 5.6 kg/h | Sorghum; 4 WAT, 1.12 kg/h | Johnsongrass; 11.2 kg/h | Barnyardgrass; Table I, 4 WAT, 11.2 kg/h | Barnyardgrass; Table II, 4 WAT, 5.6 kg/h | Yellow Nutsedge; 5.6 kg/h | Yellow Nutsedge; 11.2 kg/h | Lambsquarters; Table I, 4 WAT, 5.6 kg/h
1 (25-49% control): Downy Brome; Table I, 4 WAT, 11.2 kg/h | Soybean; 4 WAT, 1.12 kg/h | Soybean; 4 WAT, 5.6 kg/h | Morningglory; Table II, 4 WAT, 1.12 kg/h | Cocklebur; Table II, 4 WAT, 1.12 kg/h | Panicum Spp; 4 WAT, 5.6 kg/h | Sorghum; 2 WAT, 0.28 kg/h | Wild Buckwheat; 4 WAT, 1.12 kg/h | Barnyardgrass; Table II, 4 WAT, 1.12 kg/h | Sugar Beet; 4 WAT, 5.6 kg/h | Lambsquarters; Table II, 2 WAT, 0.28 kg/h | Quackgrass; 5.6 kg/h | Velvetleaf; Table II, 4 WAT, 1.12 kg/h

Source: patent US4442044A, “Process for preparing monoesters and diesters of N-alkyl substituted amino methyl phosphonic acid” (priority 1983, dated 1984)
